Assay results as given in patent US6818445B2 (Synaptic Pharmaceutical Corporation, priority 1994, dated 2004).

Assays:
human α1d receptor = target: T1, human α1d receptor (Homo sapiens, UniProt P25100); assay: Binding to cloned human α1d adrenergic receptor
T1 sequence (P25100 1-572): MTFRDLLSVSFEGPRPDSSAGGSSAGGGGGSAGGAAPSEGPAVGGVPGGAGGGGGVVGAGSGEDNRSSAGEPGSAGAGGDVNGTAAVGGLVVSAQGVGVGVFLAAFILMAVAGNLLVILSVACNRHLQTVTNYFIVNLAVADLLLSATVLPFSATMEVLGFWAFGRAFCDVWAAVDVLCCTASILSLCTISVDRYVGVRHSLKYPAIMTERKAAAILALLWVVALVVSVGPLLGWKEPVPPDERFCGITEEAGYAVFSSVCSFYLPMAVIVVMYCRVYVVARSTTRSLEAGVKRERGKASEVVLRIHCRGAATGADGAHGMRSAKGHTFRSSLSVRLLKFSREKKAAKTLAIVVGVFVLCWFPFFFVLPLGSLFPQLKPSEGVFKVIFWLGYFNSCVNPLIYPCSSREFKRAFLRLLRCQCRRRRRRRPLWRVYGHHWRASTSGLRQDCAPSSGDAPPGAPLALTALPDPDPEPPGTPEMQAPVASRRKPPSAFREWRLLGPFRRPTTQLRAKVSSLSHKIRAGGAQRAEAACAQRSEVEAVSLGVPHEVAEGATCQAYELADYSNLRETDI

[1] = test system: NPY-induced feeding behavior in satiated rats; assay: NPY-induced food intake in satiated rats; assay type: in vivo, rat; conditions: compound 30 mg/kg i.p., then 300 pmole NPY i.c.v.; 4 hours after NPY
Method: The rats are individually housed in stainless steel cages and maintained on an 11:13 h light-dark cycle (lights off at 18:00 h) at a controlled temperature of 21-23° C. at all times. Water and food (NAFAG lab chow pellets NAFAG, Gossau, Switzerland) are available ad libidum.
The guide cannula is placed on the dura. Injection cannulas extend the guide cannulas −3.8 mm ventrally to the skull surface. Animals are allowed at least 4 days of recovery postoperatively before being used in the experiments. Cannula placement is checked postoperatively by testing all rats for their drinking response to a 50 ng intracerebroventricular (i.c.v.) injection of angiotensin II. Only rats which drink at least 2.5 ml of water within 30 min. after angiotensin II injection are used in the feeding studies.
All injections are made in the morning 2 hours after light onset. Peptides are injected in artificial cerebrospinal fluid (ACSF) in a volume of 5 μl.
Pellets are then removed from the cage subsequently at each selected time point and replaced with a new set of preweighed pellets. The food intake of animals treated with test compound may be calculated as a percentage of the food intake of control animals i.e., animals treated with vehicle. Alternatively, food intake for each group of animals subjected to a particular experimental condition may be expressed as the mean±S.E.M. Statistical analysis is performed by analysis of variance using the Student-Newman-Keuls test.
Food intake is reported as the mean±S.E.M. intake for a group of animals.

5HT1a receptor = target: T2, 5HT1a receptor (Homo sapiens, UniProt P08908); assay: Binding to cloned human 5HT1a receptor
T2 sequence (P08908 1-422): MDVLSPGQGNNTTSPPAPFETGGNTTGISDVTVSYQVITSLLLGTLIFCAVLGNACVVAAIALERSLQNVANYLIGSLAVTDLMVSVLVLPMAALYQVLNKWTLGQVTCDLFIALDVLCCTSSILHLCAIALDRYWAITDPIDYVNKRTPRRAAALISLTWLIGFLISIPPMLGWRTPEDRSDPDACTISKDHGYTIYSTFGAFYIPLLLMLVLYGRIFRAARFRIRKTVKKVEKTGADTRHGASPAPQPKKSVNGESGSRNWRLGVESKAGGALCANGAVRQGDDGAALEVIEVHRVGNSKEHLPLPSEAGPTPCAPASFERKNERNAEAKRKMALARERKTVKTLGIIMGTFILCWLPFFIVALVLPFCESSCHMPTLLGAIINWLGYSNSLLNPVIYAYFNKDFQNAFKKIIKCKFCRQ

[2] = target: human dopamine D3 receptor (Homo sapiens, UniProt P35462); assay: Binding to human dopamine D3 receptor, [3H]spiperone; conditions: cloned human receptor
Sequence of human dopamine D3 receptor (P35462 whole entry): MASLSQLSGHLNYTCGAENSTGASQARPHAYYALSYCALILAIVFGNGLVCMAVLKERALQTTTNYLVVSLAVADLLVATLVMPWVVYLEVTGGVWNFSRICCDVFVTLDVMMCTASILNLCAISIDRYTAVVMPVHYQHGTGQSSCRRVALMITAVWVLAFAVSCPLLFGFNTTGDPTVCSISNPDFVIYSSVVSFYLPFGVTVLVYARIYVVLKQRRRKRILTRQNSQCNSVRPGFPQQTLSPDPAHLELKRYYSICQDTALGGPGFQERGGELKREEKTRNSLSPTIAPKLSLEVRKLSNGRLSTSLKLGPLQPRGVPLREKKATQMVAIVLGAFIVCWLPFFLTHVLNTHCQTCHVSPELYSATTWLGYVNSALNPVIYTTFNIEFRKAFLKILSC

human Y1 receptor = target: T3, human Y1 receptor (Homo sapiens, UniProt P25929); conditions: read-out: Binding Affinity (Ki (nM) vs. ^125I-PYY) Human Receptor Y1; Table 14
T3 sequence (P25929 1-384): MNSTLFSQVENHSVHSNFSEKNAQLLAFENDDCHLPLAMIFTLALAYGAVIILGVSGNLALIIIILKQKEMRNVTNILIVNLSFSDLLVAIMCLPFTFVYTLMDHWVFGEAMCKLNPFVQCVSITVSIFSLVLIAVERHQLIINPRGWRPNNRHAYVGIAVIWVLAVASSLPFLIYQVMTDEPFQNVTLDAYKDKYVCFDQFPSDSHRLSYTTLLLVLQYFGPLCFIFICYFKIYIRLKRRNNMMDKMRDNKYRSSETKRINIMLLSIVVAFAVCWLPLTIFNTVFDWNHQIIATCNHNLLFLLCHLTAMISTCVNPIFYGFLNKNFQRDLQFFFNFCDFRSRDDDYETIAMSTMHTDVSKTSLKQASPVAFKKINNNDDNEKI

human α1a receptor = target: T4, human α1a receptor (Homo sapiens, UniProt P35348); assay: Binding to cloned human α1a adrenergic receptor
T4 sequence (P35348 1-466): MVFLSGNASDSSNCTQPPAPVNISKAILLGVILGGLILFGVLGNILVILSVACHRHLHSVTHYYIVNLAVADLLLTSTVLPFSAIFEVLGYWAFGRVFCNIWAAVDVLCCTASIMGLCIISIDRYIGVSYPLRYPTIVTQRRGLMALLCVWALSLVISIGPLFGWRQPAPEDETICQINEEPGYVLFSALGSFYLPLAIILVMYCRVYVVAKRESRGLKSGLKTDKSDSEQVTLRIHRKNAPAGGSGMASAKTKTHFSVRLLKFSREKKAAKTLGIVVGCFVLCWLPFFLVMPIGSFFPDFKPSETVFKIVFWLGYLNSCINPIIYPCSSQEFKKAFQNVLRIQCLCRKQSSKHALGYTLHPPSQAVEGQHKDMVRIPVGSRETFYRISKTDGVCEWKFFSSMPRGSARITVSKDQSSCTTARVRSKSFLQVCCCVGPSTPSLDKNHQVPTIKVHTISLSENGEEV

human 5HT1Dβ receptor = human 5HT1Dβ receptor (Homo sapiens, UniProt P28222); assay: Binding to human 5HT1Dβ receptor, [3H]serotonin; conditions: cloned human receptor
Sequence of human 5HT1Dβ receptor (P28222 whole entry): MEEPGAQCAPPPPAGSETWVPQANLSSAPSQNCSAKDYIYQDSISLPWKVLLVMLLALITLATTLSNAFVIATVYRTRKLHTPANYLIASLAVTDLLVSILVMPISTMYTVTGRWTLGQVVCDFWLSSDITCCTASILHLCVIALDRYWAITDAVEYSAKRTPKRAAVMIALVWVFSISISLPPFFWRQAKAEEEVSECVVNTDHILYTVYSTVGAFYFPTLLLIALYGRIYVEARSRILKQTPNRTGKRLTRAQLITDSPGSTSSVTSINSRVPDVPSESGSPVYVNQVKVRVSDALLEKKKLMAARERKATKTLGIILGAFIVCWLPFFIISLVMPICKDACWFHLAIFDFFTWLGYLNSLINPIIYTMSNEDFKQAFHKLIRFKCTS

human α2C receptor = target: T5, human α2C receptor (Homo sapiens, UniProt P18825); assay: Binding to cloned human α2C adrenergic receptor, [3H]rauwolscine
T5 sequence (P18825 1-462): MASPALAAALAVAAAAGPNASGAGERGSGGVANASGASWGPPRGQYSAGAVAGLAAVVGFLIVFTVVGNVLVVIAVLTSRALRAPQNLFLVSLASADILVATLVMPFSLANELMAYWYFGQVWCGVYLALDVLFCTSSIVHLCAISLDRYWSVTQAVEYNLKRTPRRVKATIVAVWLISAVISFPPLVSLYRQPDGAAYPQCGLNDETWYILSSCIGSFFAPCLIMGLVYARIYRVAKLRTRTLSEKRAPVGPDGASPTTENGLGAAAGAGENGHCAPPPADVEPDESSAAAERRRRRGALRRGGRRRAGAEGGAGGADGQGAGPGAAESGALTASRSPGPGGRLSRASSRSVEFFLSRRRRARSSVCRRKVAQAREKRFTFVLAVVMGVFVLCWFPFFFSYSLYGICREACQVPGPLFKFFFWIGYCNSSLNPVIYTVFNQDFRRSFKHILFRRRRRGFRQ

| SMILES | Receptor (pKi) α1d (human α1d receptor) | Food intake (g) mean ± S.E.M., NPY + compound [1] | Receptor (pKi) 5HT1a (5HT1a receptor) | Receptor (pKi) D3 [2] | Ki (human Y1 receptor) | Receptor (pKi) α1a (human α1a receptor) | Receptor (pKi) 5HT1Dβ (human 5HT1Dβ receptor) | Receptor (pKi) α2c (human α2C receptor) |
| --- | --- | --- | --- | --- | --- | --- | --- | --- |
| Cl.O=S(=O)(NC[C@H]1CC[C@H](CNCC2CCc3ccccc3C2)CC1)c1cccc2ccccc12 (stereo partly drawn) [Compound 19] | 6.90 | 1.5 ± 0.6 g | 5.54 | 6.69 | 3550 nM | 7.47 | – | – |
| Cl.O=[N+]([O-])c1ccccc1S(=O)(=O)NC[C@H]1CC[C@H](CNCC2CCc3ccccc3C2)CC1 (stereo partly drawn) [Compound 20] | 7.01 | – | – | 6.35 | 16000 nM | 7.72 | 5.37 | 7.39 |
| Cl.Cl.Nc1ccccc1S(=O)(=O)NCC1CCC(CNCC2CCc3ccccc3C2)CC1 (stereo not drawn) [Compound 22] | 6.80 | – | 6.56 | – | 17200 nM | 7.34 | 5.41 | 7.15 |
